Results reported in patent publication US20250074911A1, “MACROCYCLIC BTK INHIBITORS” (Crossfire Oncology Holding B.V., priority 2021, published 2025).
pIC50: −log10 of the molar value. Like-named read-outs stand apart in the source and are kept apart here.

How the values were obtained:
[1] = target: full-length BTK C481S enzyme (Homo sapiens (Human), UniProt Q06187, C481S); experiment: Biochemical kinase assay BTK C481S (IMAP)
Method in brief: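 Full-length BTK C481S (1.2 nM) was pre-incubated with compound for 1 h at room temperature in the dark, then reacted with fluorescein-labelled MBP-derived peptide (50 nM) and ATP (7 μM) for 2 h. Reactions were quenched with IMAP binding solution, and IC50 values were derived from fluorescence polarization.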

[2] = test system: wt-REC-1 mantle cell lymphoma cells; experiment: Cell proliferation assay wt-REC-1 (ATPlite, 72 hours); type: cell-based
Method in brief: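 Luminescent viability read over 72 h, start-of-incubation signal recorded separately to separate growth from cell death. Percentage growth referenced to compound-free 0.3% DMSO wells; IC50 from 4-parameter logistic fit.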

[3] = target: full-length wt-BTK enzyme (Homo sapiens (Human), UniProt Q06187); experiment: Biochemical kinase assay wt-BTK (IMAP)
Sequence of full-length wt-BTK enzyme (Q06187 whole entry): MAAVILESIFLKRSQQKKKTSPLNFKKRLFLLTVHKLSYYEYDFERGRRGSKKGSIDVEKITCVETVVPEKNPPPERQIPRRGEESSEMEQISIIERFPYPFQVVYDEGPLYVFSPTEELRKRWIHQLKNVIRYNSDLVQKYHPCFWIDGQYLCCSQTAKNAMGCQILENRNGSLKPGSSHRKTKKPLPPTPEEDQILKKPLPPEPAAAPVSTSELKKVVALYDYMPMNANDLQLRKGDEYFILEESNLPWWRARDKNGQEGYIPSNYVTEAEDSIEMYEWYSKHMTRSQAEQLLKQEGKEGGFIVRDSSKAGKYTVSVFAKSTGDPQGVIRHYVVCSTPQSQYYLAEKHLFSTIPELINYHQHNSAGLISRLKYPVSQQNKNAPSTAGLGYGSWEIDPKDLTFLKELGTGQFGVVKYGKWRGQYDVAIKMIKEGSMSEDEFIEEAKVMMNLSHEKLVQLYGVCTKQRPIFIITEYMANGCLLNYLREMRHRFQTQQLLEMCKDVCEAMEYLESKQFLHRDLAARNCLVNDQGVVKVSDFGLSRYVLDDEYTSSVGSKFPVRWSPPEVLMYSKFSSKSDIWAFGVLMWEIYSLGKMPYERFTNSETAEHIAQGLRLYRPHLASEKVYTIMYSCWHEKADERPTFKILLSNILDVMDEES
Method in brief: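 IMAP fluorescence polarization assay: 1.2 nM enzyme pre-incubated 1 h with compound at room temperature, then 50 nM fluorescein-labeled MBP-derived peptide and 4 μM ATP added. Reaction ran 2 h at room temperature in the dark before quenching with IMAP binding solution.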

[4] = test system: wt-TMD8 diffuse large B-cell lymphoma cells; experiment: Cell proliferation assay wt-TMD8 (ATPlite, 120 hours); type: cell-based; conditions: B-cell, read-out: IC50 wt-TMD8
Experimental: Cell proliferation assay wt-TMD8 diffuse large B-cell lymphoma cells were purchased from Tokyo Medical and Dental University and cultured in RPMI-1640 cell culture medium (cat. no. 61870036, Life Technologies), supplemented with 10% (v/v) heat-inactivated fetal bovine calf serum and 1% penicillin/[…]. 1600 cells per well (in 45 μl) were seeded in a white 384-well culture plate (cat. no. 781080, Greiner Bio-One) and allowed to rest for at least 5 hours at 37° C., 95% humidity, and 5% CO2. 5 μl compound solution was added to the cells and incubation was continued for 120 hours (5 days), followed by addition of 24 μl ATPlite 1Step™ (PerkinElmer, Groningen, The Netherlands) solution was added to each well. Luminescence was recorded on an Envision multimode reader. The cell signal at the start of incubation was recorded separately in order to distinguish between cell population growth and cell death. In addition, maximum growth was determined by incubation of a duplicate without compound in the presence of 0.3% DMSO. Percentage growth was used as the main y-axis signal.

REC-1 T474I cell lines = experiment: Cell proliferation assay REC-1 BTK T474I knock-in cells (ATPlite, 72 hours); type: cell-based; conditions: Homo sapiens, read-out: IC50 REC-1 T474I
Method in brief: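 REC-1 cells carrying CRISPR knock-in mutant BTK, single-cell cloned and sequence-confirmed, were exposed to compound for 72 h and read by ATPlite luminescence. Percentage growth was calculated against the signal at the start of incubation and against untreated 0.3% DMSO wells as maximum growth.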

[5] = wt-TMD8 cells, 120 hours, ATPlite
[6] = 72 hours; read-out: IC50 wt-REC-1

Sequence of full-length BTK C481S enzyme (Q06187 whole entry C481S): as the sequence (Q06187 whole entry) above, with C481S counted along it

Row | pIC50 [1] | pIC50 ([2]; 72 h; read-out: IC50 wt-REC-1) | pIC50 [3] | pIC50 [4, 5] | pIC50 [2, 6] | SMILES | pIC50 (REC-1 T474I cell lines; Rec1, 72 hours) | pIC50 ([2]; 72 h, read-out: IC50 wt-REC-1) | pIC50 ([4]; 120 h) | pIC50 (REC-1 T474I cell lines; Rec1, 72 h)
1 | > 8.30 | > 7.00 | > 8.30 | > 7.00 | – | Nc1ncc2c3c1c(-c1ccc(C(=O)Nc4cc(C(F)(F)F)ccn4)cc1)nn3[C@@H]1CCCN(C1)C(=O)CCCCCCCC/C=C/2 [Example 81] | 6.30 to 7.00 | – | – | –
2 | > 8.30 | > 7.00 | > 8.30 | > 7.00 | – | Nc1ncc2c3c1c(-c1ccc(C(=O)Nc4ccccn4)cc1)nn3[C@@H]1CCC[C@H](C1)NC(=O)CCCC/C=C/2 [Example 23] | 6.30 to 7.00 | – | – | –
3 | > 8.30 | 6.00 to 7.00 | > 8.30 | > 7.00 | – | C[C@@H]1CCn2nc(-c3ccc(C(=O)Nc4cc(C(F)(F)F)ccn4)cc3)c3c(N)ncc(c32)/C=C/CN2CC[C@H]2C(=O)N1 [Example 55] | 5.00 to 6.30 | – | – | –
4 | > 8.30 | > 7.00 | > 8.30 | > 7.00 | – | Nc1ncc2c3c1c(-c1ccc(C(=O)Nc4cc(C(F)(F)F)ccn4)cc1)nn3[C@@H]1CCC[C@H](C1)NC(=O)CNCCC/C=C/2 [Example 31] | > 7.00 | – | – | –
5 | > 8.30 | > 7.00 | > 8.30 | > 7.00 | – | C[C@@H]1CCn2nc(-c3ccc(C(=O)Nc4cc(C(F)(F)F)ccn4)cc3)c3c(N)ncc(c32)/C=C/CCCOCC(=O)N1 [Example 70] | 5.00 to 6.30 | – | – | –
6 | > 8.30 | > 7.00 | > 8.30 | > 7.00 | – | COc1cc(-c2nn3c4c(cnc(N)c24)/C=C/CCN[C@H](C)CC(=O)N[C@@H]2CCC[C@@H]3C2)ccc1C(=O)Nc1cc(C(F)(F)F)ccn1 [Example 194] | 5.00 to 6.30 | – | – | –
7 | > 8.30 | > 7.00 | > 8.30 | > 7.00 | – | Nc1ncc2c3c1c(-c1ccc(C(=O)Nc4ccccn4)cc1)nn3[C@@H]1CCC[C@H](C1)NC(=O)CCCCCC/C=C/2 [Example 29] | 6.30 to 7.00 | – | – | –
8 | > 8.30 | > 7.00 | > 8.30 | > 7.00 | – | Nc1ncc2c3c1c(-c1ccc(C(=O)Nc4cc(C(F)(F)F)ccn4)cc1)nn3[C@@H]1CCCN(C1)C(=O)CCCCCCC/C=C/2 [Example 80] | > 7.00 | – | – | –
9 | > 8.30 | > 7.00 | > 8.30 | > 7.00 | – | CC(=O)N1CCC/C=C/c2cnc(N)c3c(-c4ccc(C(=O)Nc5cc(C(F)(F)F)ccn5)cc4)nn(c23)[C@@H]2CCC[C@H](C2)NC(=O)C1 [Example 167] | 6.30 to 7.00 | – | – | –
10 | 7.30 to 8.30 | 6.00 to 7.00 | 6.30 to 7.30 | 6.00 to 7.00 | – | Nc1ncc2c3c1c(-c1ccc(C(=O)Nc4ccccn4)cc1)nn3[C@@H]1CCC[C@H](C1)NC(=O)COC/C=C\C2 [Example 104b] | 5.00 to 6.30 | – | – | –
11 | > 8.30 | 6.00 to 7.00 | > 8.30 | > 7.00 | – | C[C@@H]1CCn2nc(-c3ccc(C(=O)Nc4cc(C(F)(F)F)ccn4)cc3)c3c(N)ncc(c32)/C=C/CCOCCC(=O)N1 [Example 69] | 6.30 to 7.00 | – | – | –
12 | > 8.30 | 5.00 to 6.00 | > 8.30 | > 7.00 | – | COc1ccc(F)cc1C(=O)NCc1ccc(-c2nc3n4c(cnc(N)c24)/C=C/CCN(C(C)=O)CC(=O)N[C@@H]2CC[C@@H]3C2)cc1 [Example 221] | 5.00 to 6.30 | – | – | –
13 | > 8.30 | 6.00 to 7.00 | > 8.30 | > 7.00 | – | COc1ccc(F)cc1C(=O)NCc1ccc(-c2nc3n4c(cnc(N)c24)/C=C/CCNCC(=O)N[C@@H]2CC[C@@H]3C2)cc1 [Example 219] | 5.00 to 6.30 | – | – | –
14 | > 8.30 | > 7.00 | > 8.30 | > 7.00 | – | COc1cc(-c2nn3c4c(cnc(N)c24)/C=C/CCCCCC(=O)N[C@@H]2CCC[C@@H]3C2)ccc1C(=O)Nc1cc(C(F)(F)F)ccn1 [Example 197] | 6.30 to 7.00 | – | – | –
15 | > 8.30 | 6.00 to 7.00 | > 8.30 | > 7.00 | – | CC1CCn2nc(-c3ccc(C(=O)Nc4cc(C(F)(F)F)ccn4)cc3)c3c(N)ncc(c32)/C=C/C(O)CCCCC(=O)N1 (stereo not shown) [Example 75] | 5.00 to 6.30 | – | – | –
16 | > 8.30 | 5.00 to 6.00 | > 8.30 | > 7.00 | – | CC(=O)N1CC/C=C/c2cnc(N)c3c(-c4ccc(C(=O)Nc5cc(C(F)(F)F)ccn5)cc4)nc(n23)[C@@H]2CC[C@H](C2)NC(=O)C1 [Example 220] | 5.00 to 6.30 | – | – | –
17 | > 8.30 | > 7.00 | > 8.30 | > 7.00 | – | Nc1ncc2n3c(nc(-c4ccc(C(=O)Nc5cc(C(F)(F)F)ccn5)cc4)c13)[C@@H]1CCC[C@H](C1)NC(=O)CCOCC/C=C/2 [Example 177] | 6.30 to 7.00 | – | – | –
18 | > 8.30 | > 7.00 | > 8.30 | > 7.00 | – | CC(=O)N1CC/C=C/c2cnc(N)c3c(-c4ccc(C(=O)Nc5cc(C(F)(F)F)ccn5)cc4)nn(c23)[C@@H]2CCC[C@H](C2)NC(=O)CC1 [Example 36] | 6.30 to 7.00 | – | – | –
19 | > 8.30 | 6.00 to 7.00 | > 8.30 | > 7.00 | – | CN1C/C=C/c2cnc(N)c3c(-c4ccc(C(=O)Nc5cc(C(F)(F)F)ccn5)cc4)nn(c23)[C@@H]2CCC[C@H](C2)C(=O)NCC1 [Example 3] | 5.00 to 6.30 | – | – | –
20 | > 8.30 | – | > 8.30 | > 7.00 | 5.00 to 6.00 | C[C@@H]1CC(=O)N[C@@H]2CC[C@H](C2)c2nc(-c3ccc(C(=O)Nc4cc(C#N)ccn4)cc3)c3c(N)ncc(n23)/C=C/CCN1 [Example 208] | 5.00 to 6.30 | – | – | –
21 | > 8.30 | – | > 8.30 | > 7.00 | 6.00 to 7.00 | CC1NC/C=C/c2cnc(N)c3c(-c4ccc(C(=O)Nc5cc(C(F)(F)F)ccn5)cc4)nn(c23)CC[C@@H](C)NC1=O (single isomer, unassigned) [Example 143] | 5.00 to 6.30 | – | – | –
22 | > 8.30 | > 7.00 | > 8.30 | > 7.00 | – | C[C@@H]1CC(=O)N[C@@H]2CCC[C@H](C2)c2nc(-c3ccc(C(=O)Nc4cc(C#N)ccn4)cc3)c3c(N)ncc(n23)/C=C/CCN1 [Example 206] | 5.00 to 6.30 | – | – | –
23 | > 8.30 | 6.00 to 7.00 | > 8.30 | > 7.00 | – | COc1ccc(F)cc1C(=O)NCc1ccc(-c2nc3n4c(cnc(N)c24)/C=C/CCN[C@H](C)CC(=O)N[C@@H]2CC[C@@H]3C2)cc1 [Example 214] | 5.00 to 6.30 | – | – | –
24 | > 8.30 | > 7.00 | > 8.30 | > 7.00 | – | Nc1ncc2c3c1c(-c1ccc(C(=O)Nc4ccccn4)cc1)nn3[C@@H]1CCC[C@H](C1)C(=O)NCCCCCCC2 [Example 118] | 5.00 to 6.30 | – | – | –
25 | > 8.30 | > 7.00 | > 8.30 | > 7.00 | – | Nc1ncc2n3c(nc(-c4ccc(C(=O)Nc5cc(C(F)(F)F)ccn5)cc4)c13)[C@@H]1CC[C@H](C1)NC(=O)CNCC/C=C/2 [Example 209] | 5.00 to 6.30 | – | – | –
26 | > 8.30 | 6.00 to 7.00 | > 8.30 | > 7.00 | – | Nc1ncc2c3c1c(-c1ccc(C(=O)Nc4ccccn4)cc1)nn3[C@@H]1CCC[C@H](C1)C(=O)NCCCCCCCCC2 [Example 123] | 5.00 to 6.30 | – | – | –
27 | > 8.30 | 6.00 to 7.00 | > 8.30 | > 7.00 | – | Nc1ncc2c3c1c(-c1ccc(C(=O)Nc4cc(C(F)(F)F)ccn4)cc1)nn3[C@@H]1CCC[C@H](C1)NC(=O)CCCCCC/C=C\C2 [Example 103b] | 6.30 to 7.00 | – | – | –

Row | SMILES | pIC50 [1] | pIC50 ([2]; 72 h; read-out: IC50 wt-REC-1) | pIC50 [3] | pIC50 [4, 5] | pIC50 [2, 6] | pIC50 (REC-1 T474I cell lines; Rec1, 72 hours) | pIC50 ([2]; 72 h, read-out: IC50 wt-REC-1) | pIC50 ([4]; 120 h) | pIC50 (REC-1 T474I cell lines; Rec1, 72 h)
28 | CN1C/C=C/c2cnc(N)c3c(-c4ccc(C(=O)Nc5cc(C(F)(F)F)ccn5)cc4)nc(n23)[C@@H]2CCCN(C2)C(=O)CCCC1 [Example 129] | > 8.30 | – | > 8.30 | – | – | – | 6.00 to 7.00 | > 7.00 | 5.00 to 6.30
29 | [2H]C1([2H])/C=C/c2cnc(N)c3c(-c4ccc(C(=O)Nc5cc(C(F)(F)F)ccn5)cc4)nn(c23)[C@@H]2CCC[C@H](C2)NC(=O)CCCC1 [Example 137] | > 8.30 | > 7.00 | > 8.30 | > 7.00 | – | > 7.00 | – | – | –
